# Test results: publication PMC8550792, “Evolution of kinase polypharmacology across HSP90 drug discovery” (Cell Chemical Biology, 2021)
# How the values were obtained:
# Assay in all cases: biochemical
# Assay type in all cases: biochemical
# [1] = molecular target: T1, 382 unique human kinases (Homo sapiens, UniProt Q9NR20); conditions: DYRK4, 10 uM; for remaining activity at 10 µM: read-out: % Enzyme Activity (relative to DMSO controls)
# T1 construct: purchased Reaction Biology (HotSpot contract assay)
# T1 sequence (Q9NR20 1-520): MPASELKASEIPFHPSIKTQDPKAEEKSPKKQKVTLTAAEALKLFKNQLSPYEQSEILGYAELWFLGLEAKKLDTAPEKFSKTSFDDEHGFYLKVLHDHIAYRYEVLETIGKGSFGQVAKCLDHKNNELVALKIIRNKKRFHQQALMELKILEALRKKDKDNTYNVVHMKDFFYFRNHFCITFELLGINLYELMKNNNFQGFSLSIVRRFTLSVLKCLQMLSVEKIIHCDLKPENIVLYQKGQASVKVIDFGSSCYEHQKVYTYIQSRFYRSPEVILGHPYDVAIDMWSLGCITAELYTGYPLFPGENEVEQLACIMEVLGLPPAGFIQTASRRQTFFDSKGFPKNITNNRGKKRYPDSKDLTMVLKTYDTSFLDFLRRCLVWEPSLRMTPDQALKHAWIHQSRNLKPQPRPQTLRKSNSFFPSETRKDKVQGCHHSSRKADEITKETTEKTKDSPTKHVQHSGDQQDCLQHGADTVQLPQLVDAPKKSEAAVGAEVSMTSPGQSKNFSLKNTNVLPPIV
# [2] = molecular target: T2, 382 unique human kinases (Homo sapiens, UniProt Q9UM73, F1174L); conditions: ALK (F1174L), 10 uM; for remaining activity at 10 µM: read-out: % Enzyme Activity (relative to DMSO controls)
# T2 construct: purchased Reaction Biology (HotSpot contract assay)
# T2 sequence (Q9UM73 19-1620 F1174L): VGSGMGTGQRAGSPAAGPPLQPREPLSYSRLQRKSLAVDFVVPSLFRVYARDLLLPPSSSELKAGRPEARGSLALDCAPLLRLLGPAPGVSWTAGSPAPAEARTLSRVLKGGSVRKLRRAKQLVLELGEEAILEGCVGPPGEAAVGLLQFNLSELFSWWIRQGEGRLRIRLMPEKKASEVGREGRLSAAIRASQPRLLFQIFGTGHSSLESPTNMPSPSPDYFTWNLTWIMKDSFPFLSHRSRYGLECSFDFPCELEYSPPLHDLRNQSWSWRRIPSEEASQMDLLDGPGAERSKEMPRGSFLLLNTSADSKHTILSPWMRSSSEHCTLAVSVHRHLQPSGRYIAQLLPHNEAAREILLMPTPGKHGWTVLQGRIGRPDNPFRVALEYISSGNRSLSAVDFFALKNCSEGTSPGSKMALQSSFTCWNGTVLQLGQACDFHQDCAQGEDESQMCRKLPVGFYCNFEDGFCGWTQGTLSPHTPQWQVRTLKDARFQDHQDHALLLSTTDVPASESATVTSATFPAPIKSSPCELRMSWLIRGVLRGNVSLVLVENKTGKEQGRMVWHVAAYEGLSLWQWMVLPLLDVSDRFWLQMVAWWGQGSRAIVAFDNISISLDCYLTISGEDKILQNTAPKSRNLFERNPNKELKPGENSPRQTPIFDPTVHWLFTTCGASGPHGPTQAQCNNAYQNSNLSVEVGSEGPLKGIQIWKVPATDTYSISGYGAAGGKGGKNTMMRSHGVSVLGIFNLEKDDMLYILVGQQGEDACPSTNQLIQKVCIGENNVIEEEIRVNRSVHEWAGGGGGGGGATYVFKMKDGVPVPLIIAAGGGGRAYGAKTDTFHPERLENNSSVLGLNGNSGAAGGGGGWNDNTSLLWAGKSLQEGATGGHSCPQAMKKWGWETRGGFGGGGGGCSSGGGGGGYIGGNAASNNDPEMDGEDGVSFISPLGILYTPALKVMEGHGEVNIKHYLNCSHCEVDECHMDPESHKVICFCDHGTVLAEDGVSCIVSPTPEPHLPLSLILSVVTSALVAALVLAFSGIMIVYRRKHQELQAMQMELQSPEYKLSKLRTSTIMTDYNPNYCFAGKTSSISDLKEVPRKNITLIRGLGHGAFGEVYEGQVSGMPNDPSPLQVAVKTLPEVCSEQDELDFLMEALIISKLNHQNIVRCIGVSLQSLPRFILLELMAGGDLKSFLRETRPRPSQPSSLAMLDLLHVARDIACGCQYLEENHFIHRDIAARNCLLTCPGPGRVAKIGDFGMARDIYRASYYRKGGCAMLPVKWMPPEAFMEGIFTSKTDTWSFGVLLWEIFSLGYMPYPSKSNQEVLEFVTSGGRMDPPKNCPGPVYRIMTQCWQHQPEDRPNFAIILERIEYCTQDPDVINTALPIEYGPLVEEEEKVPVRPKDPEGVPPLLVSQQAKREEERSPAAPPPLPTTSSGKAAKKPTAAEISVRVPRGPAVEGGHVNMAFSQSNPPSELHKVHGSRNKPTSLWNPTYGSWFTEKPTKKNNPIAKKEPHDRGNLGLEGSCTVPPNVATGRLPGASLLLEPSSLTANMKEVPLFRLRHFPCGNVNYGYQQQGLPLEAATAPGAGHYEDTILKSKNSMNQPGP
# [3] = molecular target: T3, 382 unique human kinases (Homo sapiens, UniProt Q9UHD2); conditions: kinase TBK1, compound 10 uM; for remaining activity at 10 µM: read-out: % Enzyme Activity (relative to DMSO controls)
# T3 construct: purchased Reaction Biology (HotSpot contract assay)
# T3 sequence (Q9UHD2 1-729): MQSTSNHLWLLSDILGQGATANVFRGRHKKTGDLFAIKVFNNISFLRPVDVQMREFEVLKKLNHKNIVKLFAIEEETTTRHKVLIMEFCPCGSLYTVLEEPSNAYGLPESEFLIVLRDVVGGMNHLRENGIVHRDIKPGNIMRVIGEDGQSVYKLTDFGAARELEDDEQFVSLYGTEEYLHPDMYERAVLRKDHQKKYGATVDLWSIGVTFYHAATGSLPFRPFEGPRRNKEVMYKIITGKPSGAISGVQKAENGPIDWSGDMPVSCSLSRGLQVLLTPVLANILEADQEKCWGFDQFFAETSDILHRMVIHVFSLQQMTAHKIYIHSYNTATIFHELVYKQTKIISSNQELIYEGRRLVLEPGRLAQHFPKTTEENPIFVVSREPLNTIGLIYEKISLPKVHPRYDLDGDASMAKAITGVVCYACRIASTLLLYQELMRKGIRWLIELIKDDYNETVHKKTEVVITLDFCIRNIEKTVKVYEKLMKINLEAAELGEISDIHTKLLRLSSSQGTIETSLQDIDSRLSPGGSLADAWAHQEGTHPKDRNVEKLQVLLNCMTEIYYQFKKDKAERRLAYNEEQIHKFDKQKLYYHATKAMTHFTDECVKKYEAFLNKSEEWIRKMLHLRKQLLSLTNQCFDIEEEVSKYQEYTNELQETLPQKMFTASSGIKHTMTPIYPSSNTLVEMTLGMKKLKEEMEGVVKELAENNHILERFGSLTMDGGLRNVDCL
# [4] = molecular target: T4, 382 unique human kinases (Homo sapiens, UniProt P23443); conditions: kinase p70S6K/RPS6KB1, compound 10 uM; for remaining activity at 10 µM: read-out: % Enzyme Activity (relative to DMSO controls)
# T4 construct: purchased Reaction Biology (HotSpot contract assay)
# T4 sequence (P23443 whole entry): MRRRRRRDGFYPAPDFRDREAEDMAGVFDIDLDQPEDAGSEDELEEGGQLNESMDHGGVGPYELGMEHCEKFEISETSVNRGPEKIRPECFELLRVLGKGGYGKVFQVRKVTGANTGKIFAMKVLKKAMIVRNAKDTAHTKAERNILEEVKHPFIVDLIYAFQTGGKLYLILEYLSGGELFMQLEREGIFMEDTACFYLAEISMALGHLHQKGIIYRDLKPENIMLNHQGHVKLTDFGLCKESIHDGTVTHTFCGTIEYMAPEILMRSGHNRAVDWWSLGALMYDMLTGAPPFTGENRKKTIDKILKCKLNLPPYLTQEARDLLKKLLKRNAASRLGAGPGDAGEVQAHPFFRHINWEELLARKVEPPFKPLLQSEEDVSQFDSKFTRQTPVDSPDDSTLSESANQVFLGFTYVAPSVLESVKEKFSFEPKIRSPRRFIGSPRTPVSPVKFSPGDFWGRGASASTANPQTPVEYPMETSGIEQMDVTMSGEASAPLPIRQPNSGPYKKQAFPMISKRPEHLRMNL
# [5] = molecular target: T5, 382 unique human kinases (Homo sapiens, UniProt P00533, C797S); conditions: EGFR (C797S), 10 uM; for remaining activity at 10 µM: read-out: % Enzyme Activity (relative to DMSO controls)
# T5 construct: purchased Reaction Biology (HotSpot contract assay)
# [6] = molecular target: T6, 382 unique human kinases (Homo sapiens, UniProt P08922, G2032R); conditions: ROS1 (G2032R), 10 uM; for remaining activity at 10 µM: read-out: % Enzyme Activity (relative to DMSO controls)
# T6 construct: purchased Reaction Biology (HotSpot contract assay)
# [7] = molecular target: T7, 382 unique human kinases (Homo sapiens, UniProt O96013); conditions: PAK4, compound at 10 uM, duplicate values; for remaining activity at 10 µM: read-out: % Enzyme Activity (relative to DMSO controls)
# T7 construct: purchased Reaction Biology (HotSpot contract assay)
# T7 sequence (O96013 whole entry): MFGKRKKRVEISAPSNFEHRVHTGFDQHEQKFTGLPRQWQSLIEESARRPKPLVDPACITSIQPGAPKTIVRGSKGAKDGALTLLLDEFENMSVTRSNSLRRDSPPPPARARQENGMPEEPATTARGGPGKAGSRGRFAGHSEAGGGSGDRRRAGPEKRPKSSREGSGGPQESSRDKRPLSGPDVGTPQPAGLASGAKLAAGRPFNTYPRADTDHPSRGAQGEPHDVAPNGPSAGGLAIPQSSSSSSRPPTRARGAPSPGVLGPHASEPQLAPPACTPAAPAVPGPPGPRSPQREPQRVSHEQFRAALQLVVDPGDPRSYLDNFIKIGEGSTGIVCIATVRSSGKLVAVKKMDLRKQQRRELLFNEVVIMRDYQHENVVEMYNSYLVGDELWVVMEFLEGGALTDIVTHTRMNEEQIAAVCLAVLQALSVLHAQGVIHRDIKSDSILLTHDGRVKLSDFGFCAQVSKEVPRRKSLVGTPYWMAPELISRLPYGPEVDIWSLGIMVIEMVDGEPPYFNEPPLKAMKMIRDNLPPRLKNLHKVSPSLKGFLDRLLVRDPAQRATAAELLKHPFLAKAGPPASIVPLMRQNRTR
# [8] = molecular target: T8, 382 unique human kinases (Homo sapiens, UniProt Q99759); conditions: MEKK3, compound at 10 uM, duplicate values; for remaining activity at 10 µM: read-out: % Enzyme Activity (relative to DMSO controls)
# T8 construct: purchased Reaction Biology (HotSpot contract assay)
# T8 sequence (Q99759 1-626): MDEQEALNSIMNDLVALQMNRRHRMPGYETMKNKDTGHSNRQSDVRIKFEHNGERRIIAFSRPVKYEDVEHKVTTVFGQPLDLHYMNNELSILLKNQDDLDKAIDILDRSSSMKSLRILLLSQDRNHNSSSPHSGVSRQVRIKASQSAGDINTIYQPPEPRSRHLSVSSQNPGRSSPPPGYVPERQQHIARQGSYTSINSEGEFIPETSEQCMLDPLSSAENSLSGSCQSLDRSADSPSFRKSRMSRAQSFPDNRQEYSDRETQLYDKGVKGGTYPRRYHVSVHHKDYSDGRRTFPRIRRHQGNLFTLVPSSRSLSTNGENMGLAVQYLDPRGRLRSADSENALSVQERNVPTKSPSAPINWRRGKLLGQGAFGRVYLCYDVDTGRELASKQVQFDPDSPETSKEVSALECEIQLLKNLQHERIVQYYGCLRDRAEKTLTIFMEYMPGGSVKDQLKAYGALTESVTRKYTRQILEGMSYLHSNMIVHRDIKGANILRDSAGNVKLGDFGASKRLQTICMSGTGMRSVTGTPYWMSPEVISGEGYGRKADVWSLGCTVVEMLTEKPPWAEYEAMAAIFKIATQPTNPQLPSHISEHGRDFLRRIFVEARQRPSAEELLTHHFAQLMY
# [9] = molecular target: T9, 382 unique human kinases (Homo sapiens, UniProt Q9Y243); conditions: AKT3, 10 uM; for remaining activity at 10 µM: read-out: % Enzyme Activity (relative to DMSO controls)
# T9 construct: purchased Reaction Biology (HotSpot contract assay)
# T9 sequence (Q9Y243 whole entry): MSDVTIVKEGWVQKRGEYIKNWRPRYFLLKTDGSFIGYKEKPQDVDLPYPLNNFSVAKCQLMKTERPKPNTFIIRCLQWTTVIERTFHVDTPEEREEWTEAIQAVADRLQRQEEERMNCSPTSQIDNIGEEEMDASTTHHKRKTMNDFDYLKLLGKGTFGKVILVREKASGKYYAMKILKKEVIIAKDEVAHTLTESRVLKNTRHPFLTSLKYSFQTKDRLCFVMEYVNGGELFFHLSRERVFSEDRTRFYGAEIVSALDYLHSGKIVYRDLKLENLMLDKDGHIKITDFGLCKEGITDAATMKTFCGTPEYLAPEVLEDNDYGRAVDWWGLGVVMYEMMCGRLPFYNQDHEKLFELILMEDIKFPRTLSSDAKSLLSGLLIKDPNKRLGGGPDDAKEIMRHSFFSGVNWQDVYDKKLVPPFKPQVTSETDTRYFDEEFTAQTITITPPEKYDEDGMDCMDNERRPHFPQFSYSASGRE
# [10] = molecular target: T10, 382 unique human kinases (Homo sapiens, UniProt P00533, DEL752-759); conditions: EGFR (d752-759), 10 uM; for remaining activity at 10 µM: read-out: % Enzyme Activity (relative to DMSO controls)
# T10 construct: purchased Reaction Biology (HotSpot contract assay)
# [11] = molecular target: T11, 382 unique human kinases (Homo sapiens, UniProt Q86UE8); conditions: TLK2, 10 uM; for remaining activity at 10 µM: read-out: % Enzyme Activity (relative to DMSO controls)
# T11 construct: purchased Reaction Biology (HotSpot contract assay)
# T11 sequence (Q86UE8 whole entry): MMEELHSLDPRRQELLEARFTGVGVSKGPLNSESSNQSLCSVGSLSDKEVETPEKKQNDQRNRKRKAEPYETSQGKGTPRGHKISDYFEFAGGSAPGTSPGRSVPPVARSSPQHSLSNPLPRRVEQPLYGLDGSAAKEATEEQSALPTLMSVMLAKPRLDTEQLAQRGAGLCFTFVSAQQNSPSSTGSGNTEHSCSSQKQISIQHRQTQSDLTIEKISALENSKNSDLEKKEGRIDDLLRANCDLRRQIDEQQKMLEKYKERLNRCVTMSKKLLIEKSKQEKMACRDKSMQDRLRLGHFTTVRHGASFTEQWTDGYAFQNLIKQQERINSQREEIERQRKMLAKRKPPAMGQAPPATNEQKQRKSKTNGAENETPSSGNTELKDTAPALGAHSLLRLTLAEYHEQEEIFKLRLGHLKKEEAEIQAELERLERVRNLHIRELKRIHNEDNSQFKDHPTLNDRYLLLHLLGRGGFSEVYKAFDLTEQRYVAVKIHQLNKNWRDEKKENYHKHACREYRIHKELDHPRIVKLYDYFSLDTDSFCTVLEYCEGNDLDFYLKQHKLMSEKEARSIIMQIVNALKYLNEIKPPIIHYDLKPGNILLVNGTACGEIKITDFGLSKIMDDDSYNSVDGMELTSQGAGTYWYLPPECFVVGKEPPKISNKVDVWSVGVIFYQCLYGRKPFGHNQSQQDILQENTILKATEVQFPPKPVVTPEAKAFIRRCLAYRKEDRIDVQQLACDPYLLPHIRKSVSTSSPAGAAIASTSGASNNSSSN
structure (smiles),measurement,setting,value
CC(C)c1cc(-c2n[nH]c(=O)n2-c2ccc3c(ccn3C)c2)c(O)cc1O [Ganetespib (STA9090)],remaining activity at 10 µM,[1],96.8%
same,remaining activity at 10 µM,[2],63.6%
same,remaining activity at 10 µM,[3],89.4%
same,remaining activity at 10 µM,[4],91.3%
same,remaining activity at 10 µM,[5],70.9%
same,remaining activity at 10 µM,[6],66.8%
same,remaining activity at 10 µM,[7],129%
same,remaining activity at 10 µM,[8],106%
CC(C)c1cc(-c2n[nH]c(=O)n2-c2ccc3c(ccn3C)c2)c(O)cc1O [Ganetespib],remaining activity at 10 µM,[9],92.1%
same,remaining activity at 10 µM,[10],103%
same,remaining activity at 10 µM,[11],91.9%
CCNC(=O)c1noc(-c2cc(C(C)C)c(O)cc2O)c1-c1ccc(CN2CCOCC2)cc1 [Luminespib (AUY-922)],% Enzyme Activity (relative to DMSO controls),[1],63.33%
same,remaining activity at 10 µM,[1],66.1%
same,% Enzyme Activity (relative to DMSO controls),[2],104.30%
same,remaining activity at 10 µM,[2],104%
same,% Enzyme Activity (relative to DMSO controls),[3],105.06%
same,remaining activity at 10 µM,[3],107%
same,% Enzyme Activity (relative to DMSO controls),[4],107.14%
same,remaining activity at 10 µM,[4],107%
same,% Enzyme Activity (relative to DMSO controls),[5],99.85%
same,remaining activity at 10 µM,[5],103%
same,% Enzyme Activity (relative to DMSO controls),[6],106.59%
same,remaining activity at 10 µM,[6],109%
same,% Enzyme Activity (relative to DMSO controls),[7],118.57%
same,remaining activity at 10 µM,[7],119%
same,% Enzyme Activity (relative to DMSO controls),[8],120.79%
same,remaining activity at 10 µM,[8],122%
CCNC(=O)c1noc(-c2cc(C(C)C)c(O)cc2O)c1-c1ccc(CN2CCOCC2)cc1 [Luminespib],% Enzyme Activity (relative to DMSO controls),[9],99.02%
same,remaining activity at 10 µM,[9],100%
same,% Enzyme Activity (relative to DMSO controls),[10],98.01%
same,remaining activity at 10 µM,[10],99.4%
same,% Enzyme Activity (relative to DMSO controls),[11],97.34%
same,remaining activity at 10 µM,[11],98.7%
